Patent publication US20160367497A1, “METHODS AND COMPOSITIONS FOR TREATING NEUROPATHIES” (Washington University, priority 2007, published 2016)

Tests used:
neuro2A cells = experiment: neurite outgrowth in Neuro2a cells; assay type: cell-based; conditions: for effect on resveratrol-stimulated neurite outgrowth: resveratrol 10 μM, Compound C 10 μM, SIRT1 inhibitors, STO 609 2.5 μM or dnAMPK expression
Description: FIG. 11A-D illustrates the resveratrol and AICAR stimulation of neurite outgrowth in Neuro2a cells. Neuro2a cells were switched to serum-starvation medium (medium containing 0.2% FCS) and treated with DMSO (vehicle control), resveratrol (10 μM) or AICAR (1 mM). (A) Serum deprivation of Neuro2a cells results in growth of short neurites that increase in length over 72 h. (B) Resveratrol induced rapid neurite outgrowth resulting in elaborate neurite network formation by 48 h. (C) AICAR stimulated extensive neurite outgrowth similar to that observed with resveratrol. (D).
FIG. 12A-M illustrates the dependency of resveratrol-induced neurite outgrowth and mitochondrial biogenesis on AMPK. Neuro2a cells were infected with lentivirus expressing GFP only (FUGW, control), dominant negative AMPK (dnAMPK) or constitutively active AMPK (caAMPK). Three days later cells were shifted to serum-starvation medium containing DMSO (control) or resveratrol (10 μM). In addition, uninfected Neuro2a cells in serum-starvation medium were treated with resveratrol alone, the AMPK inhibitor Compound C (CC, Biomol International L.P. (Plymouth Meeting, Pa.)) (10 μM) alone or with resveratrol and CC together. Images of the cultures captured in bright field and green fluorescence were overlaid to visualize neurite outgrowth. […] Neurite length in cells treated with caAMPK+resveratrol is also shown (G). […] Values were normalized to the 18S transcript. Data shown is representative of two independent experiments.
(§1) Cell culture and Reagents. Neuro2 cells obtained from ATCC were grown in MEM with 1.5 g/L sodium bicarbonate, 0.1 mM nonessential amino acids, 0.1 mM sodium pyruvate, 2 mM L-glutamine with 10% FCS. For differentiation, cells were switched to serum-starvation medium (containing 0.2% FCS). For neurite outgrowth measurements, experiments were done in quadruplicate and 100 neurites per well were randomly measured using the Metamorph software. Dorsal root ganglia sensory and cortical neurons were established from E13.5 mouse embryos, maintained in neurobasal medium supplemented with B27 (and NGF for DRG neurons) and infected with lentiviruses as described (Araki et al., 2004, Science 305:1010-1013; Hawley et al., 2005, Cell Metab 2:21-23). Resveratrol was a gift from Sirtris Pharmaceuticals (Cambridge Mass.) and AICAR was obtained from Toronto Research (North York, Canada). Splitomycin and Compound C were purchased from Biomol (Plymouth Meeting, Pa.) and Calbiochem (San Diego, Calif.). Sirtinol and nicotinamide were purchased from Sigma (Saint Louis, Mo.)
Neuro2a cells are a widely used as in vitro model of neuronal differentiation. These cells cease to proliferate and begin to differentiate, as evidenced by neurite outgrowth, in response to serum starvation, retinoic acid, or growth factors like neurotrophins and GDNF family ligands. […] Neuro2a cells grown under serum starvation conditions (0.2% fetal calf serum) were treated with AICAR (1 mM) or resveratrol (10 μM).
Since resveratrol activated AMPK and altered the differentiation of Neuro2a cells, we next asked whether AMPK activity was required for resveratrol-induced neurite outgrowth. To address this issue, we infected Neuro2a cells with lentivirus expressing either GFP alone (FUGW-control) or dominant negative AMPK (dnAMPK). After 3 days growth to allow robust lentiviral transgene expression, the medium was replaced with serum starvation medium. […] Resveratrol-induced neurite outgrowth was reduced in the presence of the AMPK pharmacological inhibitor Compound C (CC 10 μM) further supporting the importance of AMPK activity for resveratrol-induced neurite outgrowth.

AMPK = AMPK and ACC phosphorylation in cortical neurons; assay type: cell-based, mouse; conditions: for effect on resveratrol-induced AMPK phosphorylation: cortical neurons, resveratrol 10 μM, 2 h
Text: FIG. 16A-F illustrates that resveratrol activates AMP kinase in cortical neurons through Lkb1 and CaMKKβ. (A) Cortical neuron cultures were established from E 13.5 Lkb1 flox/flox embryos and infected with lentivirus expressing Cre recombinase (FCIV-Cre) or GFP only (FUGW control). Lentiviral infection of cortical neurons was monitored by GFP fluorescence (A). […] Lkb1 flox/flox cortical neurons were infected with FUGW or FCIV-Cre and treated as indicated. AMPK or ACC was immunoprecipitated from neuronal lysates and western blots were probed with the respective phospho-specific antibodies. […] Lysates from AICAR treated cortical neurons is included as a positive control. (E, F) Embryonic cortical neurons were cultured from wild type and SIRT1-deficient littermates derived from SIRT1 heterozygous matings. […] Levels of total AMPK and ACC are shown in the bottom panels of C, D, E and F.
as §1
Plasmids and viruses. The dominant negative (dnAMPK) and constitutively active (caAMPK) plasmids were gifts from Russell Jones (University of Pennsylvania, Philadelphia Pa.), and pCXN-Cre was a gift of Inder Verma (Salk Institute, San Diego, Calif.). All constructs were subcloned into the lentiviral shuttle vector FCIV and verified by nucleotide sequence analysis. Viruses were prepared as previously described (Araki et al., 2004, Science 305:1010-1013). Protein and mRNA analysis. Immunoprecipitations and western blot analysis were performed by standard methods using antibodies directed against total AMPK, phosphorylated AMPK, total ACC or phosphorylated ACC that were obtained from Cell Signaling Technology (Beverley, Mass.). The phospho-AMPK antibody detects endogenous AMPK α1 and α2 when phosphorylated at threonine 172. The LKB1 antibody was purchased from Upstate (Lake Placid, N.Y.). Quantitative RT-PCR analysis was performed using Sybr-Green methodology on a model 7700 instrument (Applied Biosystems) as previously described (Araki et al., 2004, Science 305:1010-1013). Primer sequences were those used in previous studies (Motoshima, et al., 2006, J Physiol 574:63-71).
Resveratrol activation of AMPK in Neuro2a cells along with the crucial role of AMPK in promoting neurite outgrowth in these cells encouraged us to examine this pathway in primary neurons. We treated E13.5 mouse dorsal root ganglia (DRG) sensory and cortical neuron cultures with resveratrol (10 μM) or AICAR (1 mM). […]

`NC(=O)c1cccnc1` [Nam, nicotinamide] was tested, and the “effect on resveratrol-stimulated neurite outgrowth” value (neuro2A cells) was “had no effect” and the “effect on resveratrol-induced AMPK phosphorylation” value (AMPK) was “none of the SIRT inhibitors”.

For `CC(NC(=O)c1ccccc1/N=C/c1c(O)ccc2ccccc12)c1ccccc1` (stereo not shown) [Sirtinol], the “effect on resveratrol-stimulated neurite outgrowth” value (neuro2A cells) was “had no effect” and the “effect on resveratrol-induced AMPK phosphorylation” value (AMPK) was “none of the SIRT inhibitors”.

With `O=C(O)c1ccc2c3c1cccc3c(=O)n1c3ccccc3nc21` [STO 609] the “effect on resveratrol-stimulated neurite outgrowth” value (neuro2A cells) was “had no effect” and the “effect on resveratrol-induced AMPK phosphorylation” value (AMPK) was “did inhibit AMPK and ACC phosphorylation”.

With `O=C1CCc2c(ccc3ccccc23)O1` [splitomycin] the “effect on resveratrol-stimulated neurite outgrowth” value (neuro2A cells) was “had no effect” and the “effect on resveratrol-induced AMPK phosphorylation” value (AMPK) was “none of the SIRT inhibitors”.

With `Oc1ccc(C=Cc2cc(O)cc(O)c2)cc1` [resveratrol] the “neurite outgrowth compared to serum starvation alone” value (neuro2A cells; 0.2% FCS, resveratrol 10 μM or AICAR 1 mM) was “increased neurite outgrowth” and the “phosphorylation of AMPK and ACC” value (AMPK; E13.5 cortical neurons, 10 μM) was “stimulated phosphorylation of AMPK and ACC”.
